Patent US10072017B2, “Compounds and methods for the treatment of cystic fibrosis” (Flatley Discovery Lab, LLC, priority 2015, dated 2018)

Molecular target: T1, CFTR (Homo sapiens, UniProt P13569, DEL508-508)
T1 construct: Primary CF airway epithelial cells were obtained from the UNC Cystic Fibrosis Tissue Procurement and Cell Culture Core; host or cells: primary CF airway epithelial cells
Test: Equivalent current assay in Primary CF airway epithelial cells (NAUC)
Type: cell-based
Conditions: 24 h, normalized to VX809 (3 μM) positive control; for Nauc @ 3 μM: 3 μM test compound; for Nauc @ 10 μM: 10 μM test compound
Description: Primary CF airway epithelial cells were obtained from the UNC Cystic Fibrosis Tissue Procurement and Cell Culture Core. The cells are grown at 37° C. in a Heracell 150i incubator using growth media (BEGM, Fischer). Cells were then transferred to differentiation media (ALI, UNC) for a minimum of 4 weeks on coated Costar snapwells. Two days before the Ussing assay the mucus on the apical surface of the cells was aspirated after incubating with 200 μL of differentiation Media for at least thirty (30) minutes. One day before the Ussing assay test compounds were added to the basolateral surface of the cells at various test concentrations dissolved in DMSO. Duplicate wells were prepared giving a n=3 or n=4 protocol.
Cells were treated for 24 hours with various combinations and concentrations of the test articles, reference standard (3 μM VX809, positive control). Compounds stock solutions were prepared in DMSO and diluted 1/1000 into ALI media to their final assay concentration. Cells were treated with combination solutions (2 mL of each dilution) and incubated at 37° C. for 24 h.
For the equivalent current assay, cells on four Transwell (24-well) plates were treated. Each Transwell plate was filled with 200 μl of HBS on the apical surface and 2 ml on the basolateral surface. Plates were placed horizontally in a heated mount at 37° C., and equilibrated for several minutes. Resting current was measured for 15 min and then blocked by the apical addition of 5 μM benzamil. After 20 min, 10 μM forskolin and 1 μM VX770 were added to both the apical and basolateral side to stimulate CFTR. An increase in chloride current is seen as an upward deflection of the trace. After another 30 min, CFTR-172 (a CFTR inhibitor, 20 μM) and/or bumetanide (20 uM) was added to block CFTR mediated chloride current.
The raw data, current vs. time for the Ussing chamber (sampling interval: 10 s) and voltage vs. time and resistance vs. time for the equivalent current assay (sampling interval: 5 minutes) were transferred to Excel (Microsoft Office Professional, version 14.0.7106.5003) for analysis. CFTR specific current was measured as the average amplitude of the increase in current elicited upon addition forskolin and ending upon addition of the CFTR channel specific blocker CFTR-172. This average is equivalent to the sum of the average forskolin activated and the average VX770-potentiated currents. The average current measured in vehicle (0.1% DMSO) treated cells, Iv, was subtracted from the current for the test article, ITA, or from the corrector reference standard VX809 (3 uM ISTD. For replicate measurements, the average vehicle subtracted response for the test article, was normalized to the average vehicle subtracted inhibitor response of the reference corrector VX809 (3 μM). INSC=(ITA−IV)(ave)/(ISTD−IV)(ave) (Equation 1)
A second endpoint, for the equivalent current assay, evaluated was NAUC, the normalized area under the curve (AUC) measuring the response after addition of forskolin and VX770 to the time point right before the addition of the CFTR inhibitor. The AUC is effectively the average response multiplied by the duration of the response. The AUC of the test article, AUCTA was then corrected by subtracting the average vehicle response, AUCV,ave over the same time range, and normalized as for the inhibitor-sensitive current to the difference of the corrector reference standard VX809 (3 μM VX809r,ave and the vehicle response: NAUCTA=[AUCTA−AUCV,ave]/[AUCVx809r,ave−AUCV,ave] (Equation 2).
The normalized value for DMSO is 0.0 and for VX-809 alone is 1.0. Combinations of compounds with VX-809 that give normalized values greater than 1.0 show activity in the combination assay. A value of 2 means the test compound doubles the effect to VX-809 alone.
Experiments were run with a minimum of n=4 replicates per concentration. […]

T1 sequence (P13569 with tags, fused parts or gaps DEL508-508): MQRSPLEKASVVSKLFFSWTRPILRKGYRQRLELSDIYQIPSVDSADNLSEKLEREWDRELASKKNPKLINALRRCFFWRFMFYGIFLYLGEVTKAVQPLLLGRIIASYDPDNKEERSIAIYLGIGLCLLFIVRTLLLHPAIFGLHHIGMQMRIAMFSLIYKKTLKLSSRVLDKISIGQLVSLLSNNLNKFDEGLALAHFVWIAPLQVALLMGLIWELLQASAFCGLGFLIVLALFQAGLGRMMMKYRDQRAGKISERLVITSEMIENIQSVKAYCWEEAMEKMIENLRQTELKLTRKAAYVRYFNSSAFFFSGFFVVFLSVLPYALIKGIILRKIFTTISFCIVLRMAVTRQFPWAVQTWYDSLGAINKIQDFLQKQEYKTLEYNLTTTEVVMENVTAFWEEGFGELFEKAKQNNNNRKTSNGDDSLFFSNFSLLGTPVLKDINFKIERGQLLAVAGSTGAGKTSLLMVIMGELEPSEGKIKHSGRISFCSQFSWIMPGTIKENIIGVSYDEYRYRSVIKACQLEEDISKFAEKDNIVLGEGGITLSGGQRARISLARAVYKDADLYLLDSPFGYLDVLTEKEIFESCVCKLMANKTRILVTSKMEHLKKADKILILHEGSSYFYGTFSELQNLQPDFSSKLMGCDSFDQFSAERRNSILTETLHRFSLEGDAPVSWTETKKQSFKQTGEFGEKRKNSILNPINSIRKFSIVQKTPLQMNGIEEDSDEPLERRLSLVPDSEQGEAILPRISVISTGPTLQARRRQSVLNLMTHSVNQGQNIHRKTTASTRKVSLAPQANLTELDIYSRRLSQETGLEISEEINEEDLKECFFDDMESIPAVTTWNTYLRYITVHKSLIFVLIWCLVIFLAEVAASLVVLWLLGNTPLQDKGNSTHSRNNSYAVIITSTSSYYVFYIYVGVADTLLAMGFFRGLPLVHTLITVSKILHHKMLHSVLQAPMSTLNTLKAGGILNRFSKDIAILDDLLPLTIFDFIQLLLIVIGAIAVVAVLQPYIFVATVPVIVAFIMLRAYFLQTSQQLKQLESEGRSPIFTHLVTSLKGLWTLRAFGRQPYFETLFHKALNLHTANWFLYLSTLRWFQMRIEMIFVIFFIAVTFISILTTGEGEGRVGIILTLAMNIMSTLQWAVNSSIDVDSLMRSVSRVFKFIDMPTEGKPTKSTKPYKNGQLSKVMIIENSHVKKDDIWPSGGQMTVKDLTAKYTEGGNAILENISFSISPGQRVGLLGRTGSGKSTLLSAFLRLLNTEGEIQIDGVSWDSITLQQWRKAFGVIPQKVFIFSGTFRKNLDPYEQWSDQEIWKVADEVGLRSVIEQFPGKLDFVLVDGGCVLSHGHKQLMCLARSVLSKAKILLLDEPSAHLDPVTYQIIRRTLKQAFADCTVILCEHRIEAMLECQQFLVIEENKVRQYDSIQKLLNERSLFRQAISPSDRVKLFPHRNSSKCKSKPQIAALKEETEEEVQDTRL

Row | SMILES | Nauc @ 3 μM | Nauc @ 10 μM
1 | O=C1C2C(Cc3c[nH]c4ccccc34)NC3(C(=O)Nc4c(Cl)cc(Cl)cc43)C2C(=O)N1c1cc(Cl)cc(Cl)c1 (stereo not shown) [Example 155] | ++ (NAUC “++” refers to an observed NAUC 170-140% of positive control) | + (NAUC “+” refers to an observed NAUC <140% of positive control)
2 | O=C1C2C3CCCN3C3(C(=O)Nc4c(Cl)cc(Cl)cc43)C2C(=O)N1c1cc(Cl)c(OC(F)F)c(Cl)c1 (stereo not shown) [Example 224] | +++ (NAUC “+++” refers to an observed NAUC >170% of positive control) | +++ (NAUC “+++” refers to an observed NAUC >170% of positive control)
3 | C[C@]1(O)CC2C3C(=O)N(c4cc(Cl)cc(Cl)n4)C(=O)C3C3(C(=O)Nc4c(Cl)cc(Cl)cc43)N2C1 (stereo partly shown) [Example 223] | + (NAUC “+” refers to an observed NAUC <140% of positive control) | +++ (NAUC “+++” refers to an observed NAUC >170% of positive control)
4 | O=C1C2C3CC(F)(F)CN3C3(C(=O)Nc4c(Cl)cc(Cl)cc43)C2C(=O)N1c1cc(Cl)cc(Cl)n1 (single isomer, unassigned) [Example 220] | +++ (NAUC “+++” refers to an observed NAUC >170% of positive control) | +++ (NAUC “+++” refers to an observed NAUC >170% of positive control)
5 | O=C1C2C(CO)NC3(C(=O)Nc4c(Cl)cc(Cl)cc43)C2C(=O)N1c1cc(Cl)cc(Cl)c1 (stereo not shown) [Example 165] | ++ (NAUC “++” refers to an observed NAUC 170-140% of positive control) | ++ (NAUC “++” refers to an observed NAUC 170-140% of positive control)
6 | O=C1C2C3C[C@H](Cl)CN3C3(C(=O)Nc4c(Cl)cc(Cl)cc43)C2C(=O)N1c1cc(Cl)cc(Cl)n1 (stereo partly shown) [Example 65] | ++ (NAUC “++” refers to an observed NAUC 170-140% of positive control) | +++ (NAUC “+++” refers to an observed NAUC >170% of positive control)
7 | O=C1C2C3CC(F)(F)CN3C3(C(=O)Nc4c(Cl)cc(Cl)cc43)C2C(=O)N1c1cc(Cl)cc(Cl)n1 (stereo not shown) [Example 193] | +++ (NAUC “+++” refers to an observed NAUC >170% of positive control) | +++ (NAUC “+++” refers to an observed NAUC >170% of positive control)
8 | O=C1C2C3CC(C(F)F)CN3C3(C(=O)Nc4c(Cl)cc(Cl)cc43)C2C(=O)N1c1cc(Cl)nc(Cl)c1 (stereo not shown) [Example 132] | + (NAUC “+” refers to an observed NAUC <140% of positive control) | ++ (NAUC “++” refers to an observed NAUC 170-140% of positive control)
9 | O=C1C2C3CCCN3C3(C(=O)Nc4c(Br)cc(Br)cc43)C2C(=O)N1c1cc(Cl)cc(Cl)c1 (stereo not shown) [Example 34] | +++ (NAUC “+++” refers to an observed NAUC >170% of positive control) | +++ (NAUC “+++” refers to an observed NAUC >170% of positive control)
10 | O=C1C2C3CC(=C(F)F)CN3C3(C(=O)Nc4c(Cl)cc(Cl)cc43)C2C(=O)N1c1cc(Br)cc(Br)c1 (stereo not shown) [Example 123] | + (NAUC “+” refers to an observed NAUC <140% of positive control) | +++ (NAUC “+++” refers to an observed NAUC >170% of positive control)
11 | [2H]C12C(=O)N(c3cc(Cl)cc(Cl)c3)C(=O)C1([2H])C1(C(=O)Nc3c(Cl)cc(Cl)cc31)N1C[C@@H](O)CC12 (stereo partly shown) [Example 64] | + (NAUC “+” refers to an observed NAUC <140% of positive control) | ++ (NAUC “++” refers to an observed NAUC 170-140% of positive control)
12 | C[C@]1(F)CC2C3C(=O)N(c4cc(Cl)cc(Cl)c4)C(=O)C3C3(C(=O)Nc4c(Cl)cc(Cl)cc43)N2C1 (stereo partly shown) [Example 204] | + (NAUC “+” refers to an observed NAUC <140% of positive control) | +++ (NAUC “+++” refers to an observed NAUC >170% of positive control)
13 | O=C1C2C3C[C@H](O)CN3C3(C(=O)Nc4c(Cl)cc(Cl)cc43)C2C(=O)N1c1cc(Cl)cc(Br)c1 (stereo partly shown) [Example 41] | ++ (NAUC “++” refers to an observed NAUC 170-140% of positive control) | +++ (NAUC “+++” refers to an observed NAUC >170% of positive control)
14 | COc1cc(Cl)cc(N2C(=O)C3C4C[C@H](Cl)CN4C4(C(=O)Nc5c(Cl)cc(Cl)cc54)C3C2=O)c1 (stereo partly shown) [Example 76] | +++ (NAUC “+++” refers to an observed NAUC >170% of positive control) | +++ (NAUC “+++” refers to an observed NAUC >170% of positive control)
15 | C[C@]1(OCc2ccccc2)CC2C3C(=O)N(c4cc(Cl)cc(Cl)c4)C(=O)C3C3(C(=O)Nc4c(Cl)cc(Cl)cc43)N2C1 (single isomer, unassigned) [Example 239] | ++ (NAUC “++” refers to an observed NAUC 170-140% of positive control) | ++ (NAUC “++” refers to an observed NAUC 170-140% of positive control)
16 | O=C1C2C3CCCN3C3(C(=O)Nc4c(Cl)cc(Cl)cc43)C2C(=O)N1c1cc(C(F)(F)F)cc(C(F)(F)F)c1 (stereo not shown) [Example 16] | +++ (NAUC “+++” refers to an observed NAUC >170% of positive control) | +++ (NAUC “+++” refers to an observed NAUC >170% of positive control)
17 | C[C@]1(O)CC2C3C(=O)N(c4cccc(C(F)(F)F)n4)C(=O)C3C3(C(=O)Nc4c(Cl)cc(Cl)cc43)N2C1 (stereo partly shown) [Example 253] | + (NAUC “+” refers to an observed NAUC <140% of positive control) | ++ (NAUC “++” refers to an observed NAUC 170-140% of positive control)
18 | COc1ccc2c(c1)NC(=O)C21C2C(=O)N(c3cc(Cl)cc(Cl)c3)C(=O)C2C2CCCN21 (stereo not shown) [Example 98] | +++ (NAUC “+++” refers to an observed NAUC >170% of positive control) | +++ (NAUC “+++” refers to an observed NAUC >170% of positive control)
19 | [2H]C12C(=O)N(c3cc(Cl)cc(OC)c3)C(=O)C1([2H])C1(C(=O)Nc3c(Cl)cc(Cl)cc31)N1C[C@@H](F)CC12 (stereo partly shown) [Example 145] | + (NAUC “+” refers to an observed NAUC <140% of positive control) | +++ (NAUC “+++” refers to an observed NAUC >170% of positive control)
20 | O=C1C2C(C(=O)N1c1cc(Cl)cc(Cl)c1)C1(NC23CCC3)C(=O)Nc2c(Cl)cc(Cl)cc21 (stereo not shown) [Example 211] | ++ (NAUC “++” refers to an observed NAUC 170-140% of positive control) | ++ (NAUC “++” refers to an observed NAUC 170-140% of positive control)
21 | CC(C)C1NC2(C(=O)Nc3c(Cl)cc(Cl)cc32)C2C(=O)N(c3cc(Cl)cc(Cl)c3)C(=O)C12 (stereo not shown) [Example 17] | + (NAUC “+” refers to an observed NAUC <140% of positive control) | ++ (NAUC “++” refers to an observed NAUC 170-140% of positive control)
22 | O=C1C2C3C[C@H](Cl)CN3C3(C(=O)Nc4c(Cl)cc(Cl)cc43)C2C(=O)N1c1cc(Cl)cc(Cl)c1 (single isomer, unassigned) [Example 86] | + (NAUC “+” refers to an observed NAUC <140% of positive control) | +++ (NAUC “+++” refers to an observed NAUC >170% of positive control)
23 | O=C1C2C3CCCN3C3(C(=O)Nc4c(Cl)cc(Cl)cc43)C2C(=O)N1c1cccc(F)n1 (stereo not shown) [Example 227] | + (NAUC “+” refers to an observed NAUC <140% of positive control) | ++ (NAUC “++” refers to an observed NAUC 170-140% of positive control)
